Here are results for 26 molecules from patent publication US6344476B1, “Inhibition of p38 kinase activity by aryl ureas” (Bayer Corporation, priority 1997, dated 2002).

Each structure is given as a SMILES string.

One may read the melting point as the temperature of the solid-liquid transition. In the case of `COC(=O)c1cc(C(C)(C)C)sc1NC(=O)Nc1ccc(C)cc1` [Example 44, N-(3-carbomethoxy-5-tert-butyl-2-thienyl)-N′-(4-methylphenyl)urea], the melting point is 109 to 111 °C. As to `COC(=O)c1cc(C(C)C)sc1NC(=O)Nc1ccccc1` [Example 41, N-(3-Carbomethoxy-5-isopropyl-2-thienyl)-N′-(phenyl)urea], the melting point was in the range of 64 to 65 °C. As for `COC(=O)c1[nH]c(C(C)(C)C)cc1NC(=O)Nc1ccc(C)cc1` [Example 38, N-(2carbomethoxy-5-tert-butyl-3-pyrrolyl)-N′-(4-methyl-phenyl)urea], the figure is 257 to 258 °C. As for `COC(=O)c1sc(C(C)C)cc1NC(=O)Nc1ccccc1` [Example 1, N-(2-carbomethoxy-5-isopropyl-3-thienyl)-N′-(phenyl)urea], the figure is 108 to 110 °C. To `CNC(=O)c1sc(C(C)(C)C)cc1NC(=O)Nc1ccc(C)c(Cl)c1` [Example 28, N-(2-Methylcarbamoyl-5-tert-butyl-3-thienyl)-N′-(3-chloro-4-methylphenyl)urea] belongs 178 to 179 °C; to `CC(=O)NCc1sc(C(C)(C)C)cc1NC(=O)Nc1ccc(C)cc1` [Example 50, N-(2-(N-Acetylaminomethyl)-5-tert-butyl-3-thienyl)-N′-(4-methylphenyl)urea], 203 to 205 °C; to `CNC(=O)c1sc(C(C)(C)C)cc1NC(=O)Nc1ccc(F)cc1` [Example 25, N-(2-methylcarbamoyl-5-tert-butyl-3-thienyl)-N′-(4-fluorophenyl)urea], 203 to 204 °C. For `COC(=O)c1sc(C(C)(C)C)cc1NC(=O)Nc1ccc(C)s1` [Example 14, N-(2-Carbomethoxy-5-tert-butyl-3-thienyl)-N′-(5-methyl-2-thienyl)urea], the melting point lay in the range of 118 to 120 °C. As for `COC(=O)c1oc(C(C)(C)C)cc1NC(=O)Nc1ccc(C)cc1` [Example 32, N-(2-carbomethoxy-5-tert-butyl-3-furyl)-N′-(4-methylphenyl)urea], the figure is 78 to 79 °C; as for `COC(=O)c1oc(C(C)(C)C)cc1NC(=O)Nc1cccc(Cl)c1Cl` [Example 34, N-(2-Carbomethoxy-5-tert-butyl-3-furyl)-N′-(2,3-dichlorophenyl)urea], 195 to 197 °C. `COC(=O)c1cc(C(C)C)sc1NC(=O)Nc1ccc(C)cc1` [Example 42, N-(3-carbomethoxy-5-isopropyl-2-thienyl)-N′-(4-methylphenyl)urea]: the melting point fell in the range of 49 to 51 °C.

In turn, `CNC(=O)c1sc(C(C)(C)C)cc1NC(=O)Nc1ccc(C)cc1C` [Example 27, N-(2-Methylcarbamoyl-5-tert-butyl-3-thienyl)-N′-(2,4-dimethylphenyl)urea] came in with a melting point of 195 to 196 °C. To `CNC(=O)c1sc(C(C)(C)C)cc1NC(=O)Nc1ccc(F)c(Cl)c1` [Example 30, N-(2-Methylcarbamoyl-5-tert-butyl-3-thienyl)-N′-(3chloro-4-fluorophenyl)urea] belongs 203 to 204 °C. As for `CNC(=O)c1sc(C(C)(C)C)cc1NC(=O)Nc1ccc(C(C)C)cc1` [Example 24, N-(2-Methylcarbamoyl-5-tert-butyl-3-thienyl)-N′-(4-isopropylphenyl)urea], the figure is 113 to 120 °C; as for `COC(=O)c1cc(C(C)(C)C)sc1NC(=O)Nc1ccccc1` [Example 43, N-(3-Carbomethoxy-5-tert-butyl-2-thienyl)-N′-(phenyl)urea], 80 to 82 °C. The molecule `CNC(=O)c1sc(C(C)(C)C)cc1NC(=O)Nc1ccc(C)cc1` [Example 22, N-(2-methylcarbamoyl-5-tert-butyl-3-thienyl)-N′-(4-methylphenyl)urea] displayed a melting point of 202 to 204 °C.

The molecule `Cc1ccc(NC(=O)Nc2cc(C(C)(C)C)sc2CNC(=O)CNC(=O)OC(C)(C)C)cc1` [Example 52, N-(2-(N-(N-carbo-tert-butoxyglycyl)aminomethyl)-5-tert-butyl-3-thienyl)-N′-(4-methylphenyl)urea] had a melting point of 174 to 176 °C. As for `CCc1ccc(NC(=O)Nc2cc(C(C)(C)C)sc2C(=O)NC)cc1` [Example 23, N-(2-Methylcarbamoyl-5-tert-butyl-3-thienyl)-N′-(4ethylphenyl)urea], the figure is 101 to 104 °C; as for `CNC(=O)c1sc(C(C)(C)C)cc1NC(=O)Nc1ccc(C)c(F)c1` [Example 29, N-(2-Methylcarbamoyl-5-tert-butyl-3-thienyl)-N′-(3-fluoro4-methylphenyl)urea], 182 to 183 °C. As for `COC(=O)c1c(NC(=O)Nc2ccc(C)cc2)cc(C(C)(C)C)n1C` [Example 40, N-(N-methyl-2-carbomethoxy-5-tert-butyl-3-pyrrolyl)-N′-(4-methylphenyl)urea], the figure is 171 to 172 °C; as for `COC(=O)c1[nH]c(C(C)(C)C)cc1NC(=O)Nc1ccccc1` [Example 37, N-(2-Carbomethoxy-5-tert-butyl-3-pyrrolyl)-N′-(phenyl)urea], 262 to 263 °C (dec.); as for `Cc1ccc(NC(=O)Nc2cc(C(C)(C)C)sc2CNC(=O)CN)cc1` [Example 51, N-(2-(N-glycylaminomethyl)-5-tert-butyl-3-thienyl)-N′-(4-methylphenyl)urea], 93 to 96 °C. To `COC(=O)c1sc(C(C)(C)C)cc1NC(=O)Nc1ccc(F)cc1` [Example 54, N-(2-carbomethoxy-5-tert-butyl-3-thienyl)-N′-(4-fluorophenyl)urea] belongs 160 to 162 °C; to `CNC(=O)c1oc(C(C)(C)C)cc1NC(=O)Nc1ccc(F)cc1` [Example 36, N-(2-methylcarbamoyl-5-tert-butyl-3-furyl)-N′-(4-fluorophenyl)urea], 109 to 111 °C; to `CNC(=O)c1[nH]c(C(C)(C)C)cc1NC(=O)Nc1ccc(C)cc1` [Example 113, N-(2-methylcarbamoyl-5-tert-butyl-3-pyrrolyl)-N′-(4-methylphenyl)urea], 164 to 166 °C.

The molecule `COC(=O)c1sc(C(C)(C)C)cc1NC(=O)Nc1cccc(C)c1` [Example 9, N-(2-Carbomethoxy-5-tert-butyl-3-thienyl)-N′-(3-methylphenyl)urea] came in with a melting point of 70 to 72 °C.
